Measurements taken from PMC3927586, “Protein kinase C-delta inactivation inhibits the proliferation and survival of cancer stem cells in culture and in vivo” (BMC Cancer, 2014).

How the values were obtained:
[1] = tested on: non-transformed cell lines; parameters: method as in PMID 21990324; conditions: cited from earlier work
PCSC cells = experiment: Cytotoxicity (LDH release) in pancreatic cancer stem cells; assay type: cell-based, human
Method: (§1) LDH release was assessed by spectrophotometrically measuring the oxidation of NADH in both the cells and media. Cells were seeded in 24-well plates, and exposed to PKCδ inhibitors or vehicle. After different times of exposure, cytotoxicity was quantified by a standard measurement of LDH release with the use of the LDH assay kit (Roche Molecular Biochemicals) according to the manufacturer’s protocol. Briefly, total culture medium was cleared by centrifugation. For assay of released LDH, supernatants were collected. To assess total LDH in cells, Triton X-100 was added to vehicle (control) wells to release intracellular LDH. LDH assay reagent was added to lysates or supernatants and incubated for up to 30 min at room temperature in dark, the reaction was stopped, and the absorbance was measured at 490 nm. The percentage of LDH release was then calculated as the LDH in the supernatants as a fraction of the total LDH.
Figure 2 Effects of PKCδ inhibitors on human cancer stem cells. (A) PCSC and PrCSC cells at 80% confluence were exposed to rottlerin. DMSO served as vehicle control (Vehicle). After 24 and 72 hr of exposure, cell mass was evaluated by MTT assay. Control values were normalized to 100%. p values for comparison between treatments reached significance at 24 hr of exposure (p≤0.01) for both cell types, and remained significant at 72 hr. (B) PCSC and PrCSC cells at 50% confluence were exposed to rottlerin. Cytotoxicity was evaluated by LDH-release assay. Total maximal LDH release was assigned the arbitrary value of 100% (Control). p values for comparison between effects of treatments on LDH release reached significance at 24 hr of exposure (p<0.01) for both cell types, and remained significant at 72 hr. (C) Effects of PKCδ inhibitor on tumor cell clonogenic capacity. PCSC were exposed to vehicle or rottlerin (10 μM) for 6, 18, 24, or 48 hr. Viable cells were enumerated and re-plated in media without inhibitor, and colony numbers were quantitated 15 days later. p values for comparison of treatment effects on clonogenic capacity reached significance (p=0.005) at 18 hr of exposure and remained significant for all subsequent exposure times. The insert is a photograph of stained colonies on plates. (D) Structures of staurosporine, rottlerin, second-generation (KAM1) and third-generation (BJE6-106) derivatives. (E) PCSC and PrCSC cells at 50% confluence were exposed to KAM1 at the indicated concentrations. DMSO served as vehicle control (Vehicle). Cytotoxicity was evaluated by LDH-release assay, as in panel B. p values for comparison between treatment effects on LDH release reached significance at 24 hr of exposure to 2.5 μM KAM1 for PCSC cells and at 10 μM for PrCSC (p≤0.01), and remained significant at 72 hr for all concentrations of KAM1. Error bars represent SEM.

recombinant PKCδ = target: T1, recombinant PKCδ (Homo sapiens, UniProt Q05655); experiment: PKC kinase activity assay (Z-lyte), PKCδ; assay type: biochemical; conditions: in vitro kinase assay; read-out: PKCδ IC50
T1 construct: purchased Invitrogen
Method: (§2) Assays were carried out using recombinant PKCδ or PKCα, (Invitrogen) and the Z-lyte Kinase Assays (Invitrogen) with a “PKC-kinase-specific” peptide substrate. FRET interactions produce a change in fluorescence (ex455/ex520) upon phosphorylation. The kit was used according to the manufacturer’s instructions.

recombinant PKCα = target: T2, recombinant PKCα (Homo sapiens, UniProt P17252); experiment: PKC kinase activity assay (Z-lyte), PKCα; assay type: biochemical; conditions: in vitro kinase assay; read-out: PKCα IC50
T2 construct: purchased Invitrogen
Method: as §2

PrCSC cells = experiment: Cytotoxicity (LDH release) in prostate cancer stem cells; assay type: cell-based, human
Method: as §1
Figure 2 Effects of PKCδ inhibitors on human cancer stem cells. (A) PCSC and PrCSC cells at 80% confluence were exposed to rottlerin. DMSO served as vehicle control (Vehicle). After 24 and 72 hr of exposure, cell mass was evaluated by MTT assay. Control values were normalized to 100%. p values for comparison between treatments reached significance at 24 hr of exposure (p≤0.01) for both cell types, and remained significant at 72 hr. (B) PCSC and PrCSC cells at 50% confluence were exposed to rottlerin. Cytotoxicity was evaluated by LDH-release assay. […] Viable cells were enumerated and re-plated in media without inhibitor, and colony numbers were quantitated 15 days later. p values for comparison of treatment effects on clonogenic capacity reached significance (p=0.005) at 18 hr of exposure and remained significant for all subsequent exposure times. […] Cytotoxicity was evaluated by LDH-release assay, as in panel B. p values for comparison between treatment effects on LDH release reached significance at 24 hr of exposure to 2.5 μM KAM1 for PCSC cells and at 10 μM for PrCSC (p≤0.01), and remained significant at 72 hr for all concentrations of KAM1. […]

T1 sequence (Q05655 whole entry): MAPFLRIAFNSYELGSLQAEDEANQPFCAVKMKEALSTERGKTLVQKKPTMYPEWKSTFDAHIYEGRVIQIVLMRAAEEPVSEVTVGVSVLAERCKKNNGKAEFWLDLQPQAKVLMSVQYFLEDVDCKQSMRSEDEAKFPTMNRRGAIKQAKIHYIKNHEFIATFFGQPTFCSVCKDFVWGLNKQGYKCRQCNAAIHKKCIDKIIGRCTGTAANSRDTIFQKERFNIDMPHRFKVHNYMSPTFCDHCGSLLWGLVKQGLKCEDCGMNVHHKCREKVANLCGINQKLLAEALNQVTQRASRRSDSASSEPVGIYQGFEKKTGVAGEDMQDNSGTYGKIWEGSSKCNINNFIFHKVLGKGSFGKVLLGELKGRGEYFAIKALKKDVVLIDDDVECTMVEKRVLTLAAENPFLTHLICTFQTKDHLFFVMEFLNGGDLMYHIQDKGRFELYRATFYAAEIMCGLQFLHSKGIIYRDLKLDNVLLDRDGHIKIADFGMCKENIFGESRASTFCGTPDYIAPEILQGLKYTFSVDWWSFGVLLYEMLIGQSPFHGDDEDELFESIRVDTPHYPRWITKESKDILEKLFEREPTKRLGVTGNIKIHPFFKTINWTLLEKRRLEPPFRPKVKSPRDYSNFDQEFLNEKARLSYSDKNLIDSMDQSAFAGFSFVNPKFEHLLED

IC50 (recombinant PKCδ): 2 µM
IC50 (recombinant PKCα): 157 µM
Structure (SMILES): CC1(C)C=Cc2cc(CCn3c4ccccc4c4ccccc43)cc(C(=O)/C=C/c3ccccc3)c2O1 [KAM1]
cytotoxicity in non-transformed cell lines [1]: not producing cytotoxicity
lowest concentration inducing cytotoxicity (LDH release) in PCSC (PCSC cells): 2.5 µM
concentration at which LDH release reached significance in PCSC (PCSC cells; 24 hr of exposure, p≤0.01): 2.5 µM
lowest concentration inducing cytotoxicity (LDH release) in PrCSC (PrCSC cells): 5 µM
concentration at which LDH release reached significance in PrCSC (PrCSC cells; 24 hr of exposure, p≤0.01): 10 µM
